Legend:
HCT-116 cells = assay: Cell growth, CellTiter-Glo Luminescent Cell Viability Assay, HCT-116; format: cell-based; settings: Homo sapiens, HCT116 cells, 72 h incubation, read-out: IC50 antiproliferative assay HCT116
Text: (§1) CellTiter-Glo® Luminescent Cell Viability Assay (Promega) is a homogeneous method of determining the number of viable cells in culture based on quantitation of the present ATP, which indicates the presence of metabolically active cells. The homogeneous assay procedure involves addition of a single reagent (CellTiter-Glo® Reagent) directly to the cells, which leads to cell lysis and generation of a luminescent signal proportional to the amount of the ATP and the number of cells present in culture. The assay relies on the properties of a proprietary thermostable luciferase (Ultra-Glo® recombinant luciferase), which generates a luminescent signal.
(§2) K562, A549 and HCT-116 cells, in exponential growth, were incubated for 72 h with different concentrations of the inhibitors. After 72 h, a volume of CellTiter-Glo® Reagent equal to the volume of cell culture medium was added. The content was mixed for 2 min to induce cell lysis. The luminescence was recorded after further 10 min at RT in order to obtain a stabilized luminescent signal.
(§3) The IC50 was calculated using GraphPad Software.
(§4) IC50 results were allocated to one of 3 ranges as follows: Range A: IC50≦1.0 μM; Range B: from 1.0 to 3.0 μM; Range C: IC50≧3.0 μM.

[1] = system: HDAC (nuclear fraction of Hela cells); assay: Assay of enzyme inhibition of HDAC (BIOMOL Kit); format: biochemical; settings: substrate 200 μM, 15 min at RT
Procedure: 2.2 Assay of Enzyme Inhibition of HDAC
The in-vitro activity of HDAC inhibitors was assayed using a BIOMOL Kit, according to the instructions from the manufacturer (Biomolecular Research Laborator). 15 μl of 30× diluted nuclear fraction of Hela cells, was diluted to 50 μl with the assay buffer containing the HDAC inhibitor and the substrate (lysine with acetylated amino group on the side chain) at a concentration of 200 μM. The samples were incubated for 15 min at RT and then exposed to a developer (10 min at RT). In this last step a fluorophore was produced, whose fluorescence was measured using an excitation wavelength of 355 nm and an emission at 460 nm. The IC50 was calculated using GraphPad Software.

A549 cells = assay: Cell growth, CellTiter-Glo Luminescent Cell Viability Assay, A549; format: cell-based; settings: Homo sapiens, 72 h incubation, read-out: IC50 antiproliferative assay A549
Text: as §1, §2, §3, §4

K562 cells = assay: Cell growth, CellTiter-Glo Luminescent Cell Viability Assay, K562; format: cell-based; settings: Homo sapiens, 72 h incubation, read-out: IC50 antiproliferative assay K562
Text: as §1, §2, §3, §4

Structure (SMILES)	IC50 (HCT-116 cells) [µM]	IC50 [1] [µM]	IC50 (A549 cells) [µM]	IC50 (K562 cells) [µM]
O=C(/C=C/c1ccc2c(c1)C(=O)CC1(CCN(C(=O)NCc3ccccc3)CC1)O2)NO [Example 47, (E)-3-{1′-Benzylcarbamoyl-4-oxo-spiro[chromane-2,4′-piperidine]-6-yl}-N-hydroxy-acrylamide]	≥ 3	0.1 to 1	≥ 3	≥ 3
O=C(/C=C/c1ccc2c(c1)C(=O)CC1(CCN(C(=O)Nc3ccccc3)CC1)O2)NO [Example 48, (E)-3-{1′-Phenylcarbamoyl-4-oxo-spiro[chromane-2,4′-piperidine]-6-yl}-N-hydroxy-acrylamide]	1 to 3	0.1 to 1	≥ 3	1 to 3
O=C(/C=C/c1ccc2c(c1)C(=O)CC1(CCN(CCc3c[nH]c4ccccc34)CC1)O2)NO [Example 49]	≤ 1	< 0.1	≤ 1	≤ 1
O=C(/C=C/c1ccc2c(c1)C(=O)CC1(CCN(Cc3c[nH]c4ccccc34)CC1)O2)NO [Example 50]	≤ 1	< 0.1	≤ 1	≤ 1
Cc1[nH]c2ccccc2c1CN1CCC2(CC1)CC(=O)c1cc(/C=C/C(=O)NO)ccc1O2 [Example 51, (E)-3-{1′-(2-Methyl-1H-indol-3-ylmethyl)-4-oxo-spiro[chromane-2,4′-piperidine]-6-yl}-N-hydroxy-acrylamide]	≤ 1	< 0.1	≤ 1	≤ 1
O=C(/C=C/c1ccc2c(c1)C(=O)CC1(CCN(Cc3ccc(-c4ccccc4)cc3)CC1)O2)NO [Example 52, (E)-3-{1′-(Biphenyl-4-ylmethyl)-4-oxo-spiro[chromane-2,4′-piperidine]-6-yl}-N-hydroxy-acrylamide]	≤ 1	0.1 to 1	1 to 3	≤ 1
O=C(/C=C/c1ccc2c(c1)C(=O)CC1(CCN(Cc3c[nH]c4cc(F)ccc34)CC1)O2)NO [Example 53, (E)-3-{1′-(6-Fluoro-1H-indol-3-ylmethyl)-4-oxo-spiro[chromane-2,4′-piperidine]-6-yl}-N-hydroxy-acrylamide]	≤ 1	< 0.1	1 to 3	≤ 1
O=C(/C=C/c1ccc2c(c1)C(=O)CC1(CCN(Cc3c[nH]c4ccc(F)cc34)CC1)O2)NO [Example 54, (E)-3-{1′-(5-Fluoro-1H-indol-3-ylmethyl)-4-oxo-spiro[chromane-2,4′-piperidine]-6-yl}-N-hydroxy-acrylamide]	≤ 1	< 0.1	≤ 1	≤ 1
O=C(/C=C/c1ccc2c(c1)C(=O)CC1(CCN(CCc3ccccc3)CC1)O2)NO [Example 55, (E)-3-{1′-(2-Phenyl-ethyl)-4-oxo-spiro[chromane-2,4′-piperidine]-6-yl}-N-hydroxy-acrylamide]	≤ 1	0.1 to 1	≤ 1	≤ 1
O=C(/C=C/c1ccc2c(c1)C(=O)CC1(CCN(CCc3ccc(F)cc3)CC1)O2)NO [Example 56, (E)-3-{1′-[2-(4-Fluoro-phenyl)-ethyl]-4-oxo-spiro[chromane-2,4′-piperidine]-6-yl}-N-hydroxy-acrylamide]	≤ 1	< 0.1	≤ 1	≤ 1
O=C(/C=C/c1ccc2c(c1)C(=O)CC1(CCN(CCc3ccc(Cl)cc3)CC1)O2)NO [Example 57, (E)-3-{1′-[2-(4-Chloro-phenyl)-ethyl]-4-oxo-spiro[chromane-2,4′-piperidine]-6-yl}-N-hydroxy-acrylamide]	≤ 1	0.1 to 1	≤ 1	≤ 1
COc1ccc(CCN2CCC3(CC2)CC(=O)c2cc(/C=C/C(=O)NO)ccc2O3)cc1 [Example 58, (E)-3-{1′-[2-(4-Methoxy-phenyl)-ethyl]-4-oxo-spiro[chromane-2,4′-piperidine]-6-yl}-N-hydroxy-acrylamide]	≤ 1	< 0.1	≤ 1	≤ 1
O=C(/C=C/c1ccc2c(c1)C(=O)CC1(CCN(CCc3ccccc3F)CC1)O2)NO [Example 59, (E)-3-{1′-[2-(2-Fluoro-phenyl)-ethyl]-4-oxo-spiro[chromane-2,4′-piperidine]-6-yl}-N-hydroxy-acrylamide]	≤ 1	0.1 to 1	≤ 1	≤ 1
COc1cccc(CCN2CCC3(CC2)CC(=O)c2cc(/C=C/C(=O)NO)ccc2O3)c1 [Example 60, (E)-3-{1′-[2-(3-Methoxy-phenyl)-ethyl]-4-oxo-spiro[chromane-2,4′-piperidine]-6-yl}-N-hydroxy-acrylamide]	≤ 1	0.1 to 1	≤ 1	≤ 1
Nc1ccc(CCN2CCC3(CC2)CC(=O)c2cc(/C=C/C(=O)NO)ccc2O3)cc1 [Example 62, (E)-3-{1′-[2-(4-Amino-phenyl)-ethyl]-4-oxo-spiro[chromane-2,4′-piperidine]-6-yl}-N-hydroxy-acrylamide]	≤ 1	< 0.1	≤ 1	≤ 1
CNc1ccc(CCN2CCC3(CC2)CC(=O)c2cc(/C=C/C(=O)NO)ccc2O3)cc1 [Example 63, (E)-3-{1′-[2-(4-Methylamino-phenyl)-ethyl]-4-oxo-spiro[chromane-2,4′-piperidine]-6-yl}-N-hydroxy-acrylamide]	≤ 1	< 0.1	≤ 1	≤ 1
Cn1c(CN2CCC3(CC2)CC(=O)c2cc(/C=C/C(=O)NO)ccc2O3)cc2ccccc21 [Example 64, (E)-3-{1′-(1-Methyl-1H-indol-2-ylmethyl)-4-oxo-spiro[chromane-2,4′-piperidine]-6-yl}-N-hydroxy-acrylamide]	1 to 3	0.1 to 1	1 to 3	1 to 3
CCN1CCC2(CC1)CC(=O)c1cc(/C=C/C(=O)NO)ccc1O2 [Example 68, (E)-3-{1′-Ethyl-4-oxo-spiro[chromane-2,4′-piperidine]-6-yl}-N-hydroxy-acrylamide]	≤ 1	< 0.1	≤ 1	≤ 1
CC(C)N1CCC2(CC1)CC(=O)c1cc(/C=C/C(=O)NO)ccc1O2 [Example 69, (E)-3-{1′-Isopropyl-4-oxo-spiro[chromane-2,4′-piperidine]-6-yl}-N-hydroxy-acrylamide]	≤ 1	0.1 to 1	≤ 1	≤ 1
O=C(/C=C/c1ccc2c(c1)C(=O)NC1(CCN(CCc3ccccc3)CC1)O2)NO [Example 71, (E)-3-{1′-(2-Phenyl-ethyl)-3,4-dihydro-4-oxo-spiro[2H-(1,3)-benzoxazine-2,4′-piperidin]-6-yl}-N-hydroxy-acrylamide]	≤ 1	< 0.1	1 to 3	≤ 1
O=C(/C=C/c1ccc2c(c1)C(=O)NC1(CCNCC1)O2)NO [Example 72, (E)-3-{3,4-Dihydro-4-oxo-spiro[2H-(1,3)-benzoxazine-2,4′-piperidin]-6-yl}-N-hydroxy-acrylamide]	≥ 3	< 0.1	≥ 3	≥ 3
CN1CCC2(CC1)NC(=O)c1cc(/C=C/C(=O)NO)ccc1O2 [Example 73, (E)-3-{1′-Methyl-3,4-dihydro-4-oxo-spiro[2H-(1,3)-benzoxazine-2,4′-piperidin]-6-yl}-N-hydroxy-acrylamide]	≤ 1	< 0.1	1 to 3	1 to 3
O=C(/C=C/c1ccc2c(c1)C(=O)NC1(CCN(Cc3ccc(F)cc3)CC1)O2)NO [Example 74, (E)-3-{1′-(4-Fluoro-benzyl)-3,4-dihydro-4-oxo-spiro[2H-(1,3)-benzoxazine-2,4′-piperidin]-6-yl}-N-hydroxy-acrylamide]	≤ 1	0.1 to 1	1 to 3	≤ 1
CN1C(=O)c2cc(/C=C/C(=O)NO)ccc2OC12CCN(Cc1ccc(F)cc1)CC2 [Example 75, (E)-3-{1′-(4-Fluoro-benzyl)-3,4-dihydro-3-methyl-4-oxo-spiro[2H-(1,3)-benzoxazine-2,4′-piperidin]-6-yl}-N-hydroxy-acrylamide]	≤ 1	0.1 to 1	1 to 3	≤ 1
CN1C(=O)c2cc(/C=C/C(=O)NO)ccc2OC12CCN(Cc1ccccc1)CC2 [Example 76, (E)-3-{1′-Benzyl-3,4-dihydro-3-methyl-4-oxo-spiro[2H-(1,3)-benzoxazine-2,4′-piperidin]-6-yl}-N-hydroxy-acrylamide]	≤ 1	0.1 to 1	1 to 3	1 to 3

Reference: patent US9115148B2, “Spirocyclic derivatives as histone deacetylase inhibitors” (DAC S.R.L., priority 2008, dated 2015)
